Results from ChEMBL document CHEMBL5727120, “Substituted pyrrolidines as mGluR5 antagonists” (2019).

Biological target: Metabotropic glutamate receptor 5 (Rattus norvegicus, UniProt P31424)
Experiment: Functional Calcium Flux Assay: For functional assays, HEK293 cells stably expressing recombinant rat mGluR5 were seeded in 384-well plates and dye loaded using Fluo-8. Cells were then washed to remove the un-incorporated dye. Antagonist evaluation was performed following a 15 min incubation of the test compound followed by the addition of submaximal concentration of glutamate. Intracellular calcium ([Ca2+]i) measurements were performed using a fluorometric imaging plate reader (FLIPR, Molecular Devices). The glutamate-evoked increase in [Ca2+]i in the presence of the test compounds was compared to the response to glutamate alone (the positive control). Antagonist inhibition curves were fitted with a 4-parameter logistic equation giving IC50 values, and Hill coefficients using an iterative nonlinear curve fitting algorithm.

Sequence of Metabotropic glutamate receptor 5 (P31424 whole entry): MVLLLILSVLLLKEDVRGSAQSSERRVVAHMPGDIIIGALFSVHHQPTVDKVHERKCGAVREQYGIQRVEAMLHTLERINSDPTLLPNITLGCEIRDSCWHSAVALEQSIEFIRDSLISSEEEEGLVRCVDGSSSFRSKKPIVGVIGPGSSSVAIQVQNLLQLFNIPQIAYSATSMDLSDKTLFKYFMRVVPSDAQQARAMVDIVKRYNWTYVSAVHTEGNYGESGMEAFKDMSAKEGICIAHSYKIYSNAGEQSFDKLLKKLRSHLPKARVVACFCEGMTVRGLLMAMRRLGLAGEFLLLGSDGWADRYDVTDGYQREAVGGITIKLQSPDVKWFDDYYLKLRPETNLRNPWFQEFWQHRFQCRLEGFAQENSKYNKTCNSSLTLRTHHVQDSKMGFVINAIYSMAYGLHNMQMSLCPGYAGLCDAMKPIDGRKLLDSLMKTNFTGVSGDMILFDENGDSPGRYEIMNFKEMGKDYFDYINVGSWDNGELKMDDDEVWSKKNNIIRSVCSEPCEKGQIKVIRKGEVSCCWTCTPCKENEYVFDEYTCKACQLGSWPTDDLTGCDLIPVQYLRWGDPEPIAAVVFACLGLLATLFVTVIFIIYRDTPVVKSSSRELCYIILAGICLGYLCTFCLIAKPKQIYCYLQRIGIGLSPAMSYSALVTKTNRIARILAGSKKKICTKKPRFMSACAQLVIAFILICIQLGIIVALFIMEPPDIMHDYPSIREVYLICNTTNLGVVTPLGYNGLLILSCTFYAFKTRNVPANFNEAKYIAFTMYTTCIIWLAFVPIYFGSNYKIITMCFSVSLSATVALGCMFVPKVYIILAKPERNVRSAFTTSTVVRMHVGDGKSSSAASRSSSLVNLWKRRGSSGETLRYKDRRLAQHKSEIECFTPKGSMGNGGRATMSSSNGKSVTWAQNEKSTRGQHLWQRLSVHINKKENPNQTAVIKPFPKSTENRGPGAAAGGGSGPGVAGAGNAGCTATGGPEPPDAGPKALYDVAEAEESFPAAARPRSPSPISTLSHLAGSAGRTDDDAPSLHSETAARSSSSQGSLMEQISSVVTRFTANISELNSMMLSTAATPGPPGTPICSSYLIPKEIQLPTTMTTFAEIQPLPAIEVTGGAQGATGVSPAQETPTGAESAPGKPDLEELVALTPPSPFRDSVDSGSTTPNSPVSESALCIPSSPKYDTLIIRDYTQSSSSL

IC50: < 500 nM
Structure (SMILES): N#Cc1cc(F)cc(N2CC3CC3(C#Cc3cccc(Cl)n3)C2)c1 (stereo unspecified)
